Results on 17 compounds are retold here after patent US20230212163A1, “2-(HET)ARYL-SUBSTITUTED CONDENSED HETEROCYCLIC DERIVATIVES AS PEST CONTROL AGENTS” (Bayer Aktiengesellschaft, priority 2020, published 2023).

Series [1] relates to Diabrotica balteata. As to the kind of experiment: Diabrotica balteata spray test. Type of series: in vivo. The note with it: after 7 days; for pest or weed control at 31.25 g/ha / pest or weed control at 125 g/ha / pest or weed control at 500 g/ha / pest or weed control at 20 g/ha / pest or weed control at 100 g/ha: Diabrotica balteata, 168 h; for pest or weed control at 31.25 g/ha: application rate 31.25 g/ha (=10 μg/cavity); for pest or weed control at 31.25 g/ha / pest or weed control at 125 g/ha / pest or weed control at 500 g/ha: read-out: efficacy; for pest or weed control at 125 g/ha: application rate 125 g/ha (=40 μg/cavity); for pest or weed control at 500 g/ha: application rate 500 g/ha (=160 μg/cavity); for pest or weed control at 20 g/ha: application rate 20 g/ha. On the procedure: [table] To produce a suitable active compound formulation, 1 part by weight of active compound is dissolved using the stated parts by weight of solvent and made up with water containing an emulsifier concentration of 1000 ppm until the desired concentration is attained. To produce further test concentrations, the formulation is diluted with emulsifier-containing water. Pre-swollen wheat grains (Triticum aestivum) are incubated in a multiwell plate filled with agar and a little water for one day (5 seed grains per cavity). The germinated wheat grains are sprayed with an active compound formulation of the desired concentration. Subsequently, each cavity is infected with 10-20 beetle larvae of Diabrotica balteata. After 7 days, the efficacy in % is determined. 100% means that all wheat plants have grown as in the untreated, uninfected control; 0% means that no wheat plant has grown.

The subject of series [2] is Myzus persicae. Briefly: Myzus persicae oral test. The note with it: 120 h, application rate 4 ppm, after 5 days, read-out: efficacy. It is filed as in vivo. On the procedure:
[table] To produce a suitable active compound formulation, 1 part by weight of active compound is dissolved using the specified parts by weight of solvent and made up with water until the desired concentration is attained. 50 μl of the active compound formulation are transferred into microtitre plates and made up to a final volume of 200 μl with 150 μl of IPL41 insect medium (33%+15% sugar). Subsequently, the plates are sealed with parafilm, which a mixed population of green peach aphids (Myzus persicae) within a second microtitre plate is able to puncture and imbibe the solution through. After 5 days, the efficacy in % is determined. 100% means that all the aphids have been killed; 0% means that no aphids have been killed.

In series [3] the test system is Spodoptera frugiperda. As to the kind of experiment: Spodoptera frugiperda spray test (maize leaf discs). Type of series: in vivo. The settings on record: application rate 100 g/ha, after 7 days; for pest or weed control at 100 g/ha: Spodoptera frugiperda, foliar, 168 h. As to the method:
(§1) [table] To produce a suitable active compound formulation, 1 part by weight of active compound is dissolved using the stated parts by weight of solvent and made up with water containing an emulsifier concentration of 1000 ppm until the desired concentration is attained. To produce further test concentrations, the formulation is diluted with emulsifier-containing water. Leaf discs of maize (Zea mays) are sprayed with an active compound formulation of the desired concentration and, after drying, populated with caterpillars of the fall armyworm (Spodoptera frugiperda). After 7 days, the efficacy in % is determined. 100% means that all the caterpillars have been killed; 0% means that no caterpillar has been killed.

Series [4] has as its system Nezara viridula. As to the kind of experiment: Nezara viridula spray test. It is filed as in vivo. The settings on record: application rate 500 g/ha, after 4 days; for pest or weed control at 500 g/ha: Nezara viridula, 96 h. As to the method:
[table] To produce a suitable active compound formulation, 1 part by weight of active compound is dissolved using the stated parts by weight of solvent and made up with water containing an emulsifier concentration of 1000 ppm until the desired concentration is attained. To produce further test concentrations, the formulation is diluted with emulsifier-containing water. Barley plants (Hordeum vulgare) are sprayed with an active compound formulation of the desired concentration and are infected with larvae of the Southern green shield bug (Nezara viridula). After 4 days, the efficacy in % is determined. 100% means that all of the shield bugs have been killed; 0% means that none of the shield bugs have been killed.

Series [5] has as its system Phaedon cochleariae. As to the kind of experiment: Phaedon cochleariae spray test. It is filed as in vivo. The settings on record: application rate 100 g/ha, after 7 days. As to the method: as §1, with “water. Discs” for “water. Leaf discs”, “of Chinese cabbage leaves (Brassica pekinensis)” for “of maize (Zea mays)”, “with larvae” for “with caterpillars”, “the mustard beetle (Phaedon cochleariae).” for “the fall armyworm (Spodoptera frugiperda).”, “the beetle larvae” for “the caterpillars”, “no beetle larvae have” for “no caterpillar has”

Series [6] in a line: logP by HPLC on reversed-phase column (C18). It is filed as physicochemical. The note with it: LC-UV. On the procedure:
The logP values were determined according to EEC Directive 79/831 Annex V.A8 by HPLC (high-performance liquid chromatography) on a reversed-phase column (C18) using the following methods: ^[a]The logP value is determined by LC-UV measurement in the acidic range using 0.9 ml/l formic acid in water and 1.0 ml/l formic acid in acetonitrile as mobile phases (linear gradient from 10% acetonitrile to 95% acetonitrile). ^[b]The logP value is determined by LC-UV measurement in the neutral range using 0.001 molar ammonium acetate solution in water and acetonitrile as mobile phases (linear gradient from 10% acetonitrile to 95% acetonitrile). Calibration was carried out using straight-chain alkan-2-ones (having 3 to 16 carbon atoms) with known logP values. The values between successive alkanones are determined by linear regression.

Where [7] appears, read: neutral range, ammonium acetate/acetonitrile, read-out: logP (neutral).

Like-named read-outs stand apart in the source and are kept apart here.

Consider `CCS(=O)(=O)c1ccc(-n2ncn(-c3ccc(Br)cc3)c2=O)nc1-c1nc2cc(S(=O)(=O)C(F)(F)F)ccc2o1` [Example I-05], for which, in series [1], the pest or weed control at 31.25 g/ha turned out to be 100%, the pest or weed control at 125 g/ha was found to be 100% and the pest or weed control at 500 g/ha was 100%. Further, the pest or weed control at 4 ppm in series [2] was 100%. Further, the pest or weed control at 100 g/ha in series [3] stood at 100%.

`CCS(=O)(=O)c1ccc(-n2ncn(-c3ccc(Cl)cc3)c2=O)nc1-c1nc2cc(C(F)(F)C(F)(F)F)ccc2o1` [Example I-45] had a pest or weed control at 20 g/ha in series [1] of 80%. In addition, the pest or weed control at 100 g/ha in series [1] (application rate 100 g/ha) and in series [3] was 100% each time. Also, the pest or weed control at 500 g/ha in series [4] was 100%.

For `CCS(=O)(=O)c1ccc(-n2ncn(-c3ccc(C#N)cc3)c2=O)nc1-c1nc2cc(S(=O)(=O)C(F)(F)F)ccc2o1` [Example I-06], in series [1], the pest or weed control at 31.25 g/ha turned out to be 100%, the pest or weed control at 125 g/ha worked out at 100% and the pest or weed control at 500 g/ha was found to be 100%. Also, in series [2], the pest or weed control at 4 ppm worked out at 90%. In series [3], the pest or weed control at 100 g/ha amounted to 100%.

As for `CCS(=O)(=O)c1ccc(N2N=CC(c3ccccc3)C2=O)nc1-c1nc2cc(S(=O)(=O)C(F)(F)F)ccc2o1` (centres unmarked) [Example I-01], the pest or weed control at 4 ppm in series [2] came out at 100%. Also, the activity in series [5] was determined as 100%. This compound yielded a pest or weed control at 100 g/ha in series [3] of 100%.

For the compound `CCS(=O)(=O)c1ccc(-n2ncn(-c3cccc(Cl)c3)c2=O)nc1-c1nc2cc(S(=O)(=O)C(F)(F)C(F)(F)F)ccc2o1` [Example I-41], the pest or weed control at 20 g/ha in series [1] turned out to be 100%. Further, the pest or weed control at 100 g/ha in series [1] (application rate 100 g/ha) and in series [3] was 100% throughout. This compound also had a pest or weed control at 500 g/ha in series [4] of 100%.

In series [1], `CCS(=O)(=O)c1ccc(-n2ncn(-c3ccc(F)cc3)c2=O)nc1-c1nc2cc(C(F)(F)C(F)(F)F)ccc2o1` [Example I-56] returned a pest or weed control at 20 g/ha of 100%. The pest or weed control at 100 g/ha in series [1] (application rate 100 g/ha) and in series [3] was 100% in each case. Further, the pest or weed control at 500 g/ha in series [4] turned out to be 100%.

Turning to `CCS(=O)(=O)c1ccc(-n2ncn(-c3cccc(F)c3)c2=O)nc1-c1nc2cc(S(=O)(=O)C(F)(F)F)ccc2o1` [Example I-14, 2-[5-Ethylsulfonyl-6-[5-(trifluoromethylsulfonyl)-1,3-benzoxazol-2-yl]-2-pyridyl]-4-(3-fluorophenyl)-1,2,4-triazol-3-one], the pest or weed control at 100 g/ha in series [1] (application rate 100 g/ha) and in series [3] was 100% in each case. Moreover, the pest or weed control at 500 g/ha in series [1] worked out at 100%. Also, in series [2], the pest or weed control at 4 ppm was 90%. For the same compound, the chromatographic logP in series [6] (setting [7]) is 3.43.

Take `CCS(=O)(=O)c1ccc(F)nc1-c1nc2cc(S(=O)(=O)C(F)(F)F)ccc2o1` [2-(3-Ethylsulfonyl-6-fluoro-2-pyridyl)-5-(trifluoromethylsulfonyl)-1,3-benzoxazole]: in series [6] (setting [7]), the chromatographic logP worked out at 3.11.

Take `O=S(=O)(c1ccc2oc(-c3nc(F)ccc3F)nc2c1)C(F)(F)F` [2-(3,6-Difluoro-2-pyridyl)-5-(trifluoromethylsulfonyl)-1,3-benzoxazole]: the chromatographic logP in series [6] (setting [7]) worked out at 3.06.

For `CCSc1ccc(F)nc1-c1nc2cc(S(=O)(=O)C(F)(F)F)ccc2o1` [2-(3-Ethylsulfanyl-6-fluoro-2-pyridyl)-5-(trifluoromethylsulfonyl)-1,3-benzoxazole], in series [6] (acidic range, formic acid in water/acetonitrile, read-out: logP (acidic)), the chromatographic logP was 4.13.

On to `CCS(=O)(=O)c1ccc(-n2ncn(-c3cccc(I)c3)c2=O)nc1-c1nc2cc(S(=O)(=O)C(F)(F)F)ccc2o1` [Example I-16], for which the pest or weed control at 100 g/ha in series [1] (application rate 100 g/ha) and in series [3] was 100% each time. Also, the pest or weed control at 500 g/ha in series [1] amounted to 100%. For the same compound, the pest or weed control at 4 ppm in series [2] was determined as 90%.

For the compound `CCS(=O)(=O)c1ccc(-n2ncn(-c3cccc(Cl)c3)c2=O)nc1-c1nc2cc(S(=O)(=O)C(F)(F)C(F)(F)F)ccc2o1` [Example I-42], the figures for the activity in series [1] (application rate 100 g/ha), in series [4] and in series [3] were 80%, 90% and 100%, respectively.

Consider `CCS(=O)(=O)c1ccc(-n2ncn(-c3cccc(F)c3)c2=O)nc1-c1nc2cc(C(F)(F)C(F)(F)F)ccc2o1` [Example I-47], for which, in series [1], the pest or weed control at 20 g/ha was determined as 80%. Also, the pest or weed control at 100 g/ha stood at 80% in series [1] (application rate 100 g/ha) and 100% in series [3]. In series [4], this compound displayed a pest or weed control at 500 g/ha of 100%.

For `CCS(=O)(=O)c1ccc(-n2ncn(-c3cccc(Cl)c3)c2=O)nc1-c1nc2cc(C(F)(F)C(F)(F)F)ccc2o1` [Example I-46], the pest or weed control at 20 g/ha in series [1] is 100%. The results for the pest or weed control at 100 g/ha in series [1] (application rate 100 g/ha) and in series [3] were 80% and 100%, respectively. In series [4], this compound had a pest or weed control at 500 g/ha of 90%.

In turn, `CCS(=O)(=O)c1ccc(-n2ncn(-c3cccc(Br)c3)c2=O)nc1-c1nc2cc(C(F)(F)C(F)(F)F)ccc2o1` [Example I-44] registered a pest or weed control at 20 g/ha in series [1] of 80%. Besides, the pest or weed control at 100 g/ha in series [1] (application rate 100 g/ha) and in series [3] was 100% in each case. In series [4], this compound showed a pest or weed control at 500 g/ha of 100%.

Take `CCS(=O)(=O)c1ccc(-n2ncn(-c3ccc(F)cc3)c2=O)nc1-c1nc2cc(S(=O)(=O)C(F)(F)C(F)(F)F)ccc2o1` [Example I-52]: the pest or weed control at 20 g/ha in series [1] is 100%. For the same compound, the pest or weed control at 100 g/ha in series [1] (application rate 100 g/ha) and in series [3] was 100% throughout. In series [4], this compound returned a pest or weed control at 500 g/ha of 100%.

With `CCS(=O)(=O)c1ccc(-n2ncn(C3CC3C(F)(F)F)c2=O)nc1-c1nc2cc(S(=O)(=O)C(F)(F)F)ccc2o1` (centres unmarked) [Example I-39], the pest or weed control at 100 g/ha in series [1] (application rate 100 g/ha) and in series [3] was 100% in each case. The pest or weed control at 500 g/ha in series [4] turned out to be 100%.
